Source: PMC6944458, “Intracellular and in vivo evaluation of imidazo[2,1-b]thiazole-5-carboxamide anti-tuberculosis compounds” (PLoS ONE, 2020)
≈ marks a conversion by molar mass, not a printed value. Where “and” joins values, the source holds several entries; their conditions need not be identical. Equal entries are not always repeated. Where two headings read alike, the source gives them in different places.

What was measured:
[1] = tested on: H37Rv-Mtb; experiment: MIC against replicating H37Rv-Mtb in liquid media; assay type: cell-based, Mycobacterium tuberculosis; conditions: for MIC: replicating, 5 days, OD590
[2] = tested on: VERO cell line; experiment: Eukaryotic cytotoxicity (CellTiter-Glo); assay type: cell-based, African green monkey; conditions: Chlorocebus sabaeus, 48 h, 2-day incubation, read-out: VERO Toxicity IC50
Protocol: Cytotoxicity was tested against the African green monkey adult kidney cell line (VERO, ATCC CRL-1586) as described. Compounds were tested as 10-point, 3-fold serial dilutions in DMSO (final assay concentration of 1% DMSO) and viability was measured using CellTiter-Glo (Promega). Inhibition curves were fitted using the Levenberg–Marquardt algorithm. IC50 was defined as the concentration required to reduce cell viability by 50% after 2-day incubation.

[3] = physchem; conditions: pH 6.8, aqueous buffer, kinetic from dmso stock
Protocol: The relative solubility of compounds was determined in microbiological medium using turbidity as a measure [27]. A serial dilution of compounds was prepared in DMSO and then transferred to microbiological medium at pH 6.8.

[4] = tested on: M. tuberculosis Erdman; experiment: Chronic Balb/c model of TB infection; assay type: in vivo, Balb/c mice; conditions: 25 mg/kg
[5] = tested on: M. tuberculosis strain H37Rv-LUX; experiment: microbe, parasite or virus in culture; assay type: cell-based; conditions: Mycobacterium tuberculosis, read-out: LORA MIC
[6] = tested on: M. tuberculosis GC1237 (Mtb-GFP) in Raw 264.7 macrophages; experiment: Intracellular mycobacterial replication assay in macrophages; assay type: cell-based; conditions: Mycobacterium tuberculosis, 120 h, 5 days, read-out: MIC, intracellular M. tuberculosis growth in macrophages
[7] = tested on: M. tuberculosis GC1237 (Mtb-GFP) in Raw 264.7 macrophages; conditions: cited from earlier work
[8] = in vivo; cited from earlier work
[9] = tested on: murine Raw 264.7 macrophages; conditions: mouse
[10] = cited from earlier work
[11] = cited from earlier work; remark: listed apart in the source
[12] = tested on: replicating Mtb; conditions: against three family strains; cited from earlier work
[13] = Mycobacterium tuberculosis, H37RV, 120 h

| Compound | MIC [1, 13] [µM] | IC50 [2] [µM] | solubility [3] [µM] | MIC [5] [µM] | MIC [6] [µM] | also measured |
| --- | --- | --- | --- | --- | --- | --- |
| Cc1cn2c(C(=O)NCc3ccc(Oc4cccc(C(F)(F)F)c4)nc3)c(C)nc2s1 [ND-12025, 2,6-Dimethyl-N-((6-(3-(trifluoromethyl)phenoxy)yridine-3-yl)methyl)imidazo[2,1-b]thiazole-5-carboxamide] | 0.33 (≈ 0.147 µg/mL) | > 50 | 100 (≈ 44.6 µg/mL) | – | – | – |
| NNC(=O)c1ccncc1 [INH, Isoniazid] | – | – | – | – | – | Log reduction vs Control (Lung) ([4]; 4 weeks): 1.73 log10 CFU; Log reduction vs Control (Spleen) ([4]; 4 weeks): 2.87 log10 CFU; Lung Log10 CFU ±SEM ([4]; ERDMAN, 672 h): 4.06 ± 0.11 Log10 CFU; Spleen Log10 CFU ±SEM ([4]; ERDMAN, 672 h): 2.13 ± 0.12 Log10 CFU |
| CCc1nc2sc(C)cn2c1C(=O)NCc1ccc(Oc2cccc(C(F)(F)F)c2)nc1 [ND-12024, 6-Ethyl-2-methyl-N-((6-(3-(trifluoromethyl)phenoxy)yridine-3-yl)methyl)imidazo[2,1-b]thiazole-5-carboxamide] | 0.21 (≈ 0.0967 µg/mL) | > 50 | 50 (≈ 23 µg/mL) | – | – | – |
| Cc1cn2c(C(=O)NCc3ccc(N4CCS(=O)(=O)CC4)c(F)c3)c(C)nc2s1 [ND-11903, N-(4-(1,1-Dioxidothiomorpholino)-3-fluorobenzyl)-2,6-dimethylimidazo[2,1-b]thiazole-5-carboxamide] | 3.7 (≈ 1.62 µg/mL) | > 50 | > 200 | 200 (≈ 87.3 µg/mL) | – | Fold less active than the most potent lipophilic compounds (ND-11543, ND-11564) ([1]; MIC H37Rv-Mtb comparison): > 100 fold |
| CCc1nc2sc(C)cn2c1C(=O)NCc1ccc2c(c1)CCO2 [ND-11503, N-((2,3-Dihydrobenzofuran-5-yl)methyl)-6-ethyl-2-methylimidazo[2,1-b]thiazole-5-carboxamide] | 0.25 to 0.54 (≈ 0.0854 to 0.184 µg/mL) | > 50 | ≥ 200 | 2.7 (≈ 0.922 µg/mL) | 1.25 to 2.5 (≈ 0.427 to 0.854 µg/mL) | MIC [1]: 0.25 µM (≈ 0.0854 µg/mL) |
| CCc1nc2ccc(Cl)cn2c1C(=O)NCc1ccc(N2CCC(c3ccc(OC(F)(F)F)cc3)CC2)cc1 [Q203] | 0.005 (≈ 0.00279 µg/mL) | > 50 | 100 (≈ 55.7 µg/mL) | 1.3 (≈ 0.724 µg/mL) | 0.0078 (≈ 0.00434 µg/mL) | MIC, intracellular, previous reports [7]: < 0.098 µM; AUC 0–24 [8]: 44,100 ng·hr/mL |
| Cc1cn2c(C(=O)NCc3ccc4c(c3)CCO4)c(C)nc2s1 [ND-11459, N-((2,3-Dihydrobenzofuran-5-yl)methyl)-2,6-dimethylimidazo[2,1-b]thiazole-5-carboxamide] | – | > 50 | ≥ 200 | 12.4 (≈ 4.06 µg/mL) | 1.25 to 2.5 (≈ 0.409 to 0.819 µg/mL) | Macrophage toxicity concentration relative to MIC [9]: 4 and 8-fold higher than their MIC |
| NC(=O)c1sc(N2CCOCC2)cc1OCCc1ccc(OC(F)(F)F)cc1 [Compound 6] | – | – | – | – | – | MIC [10]: 0.2 µM (≈ 0.0833 µg/mL) |
| C[C@H]1COC2(CCN(c3nc(=O)c4cc(C(F)(F)F)cc([N+](=O)[O-])c4s3)CC2)O1 [BTZ043, reference compound] | 0.002 (≈ 0.000863 µg/mL) | > 50 | – | – | 0.0078 (≈ 0.00336 µg/mL) | MIC, intracellular, previous reports [7]: < 0.098 µM |
| Cc1cn2c(C(=O)NCc3ccc(N4CCS(=O)(=O)CC4)cc3)c(C)nc2s1 [ND-12015, N-(4-(1,1-Dioxidothiomorpholino)benzyl)-2,6-dimethylimidazo[2,1-b]thiazole-5-carboxamide] | 13 (≈ 5.44 µg/mL) | > 50 | 200 (≈ 83.7 µg/mL) | – | – | Fold less active than the most potent lipophilic compounds (ND-11543, ND-11564) ([1]; MIC H37Rv-Mtb comparison): > 100 fold |
| Cc1cn2c(C(=O)NCc3ccc(Oc4cccc(C(F)(F)F)c4)cc3)c(C)nc2s1 [ND-11564, 2,6-Dimethyl-N-(4-(3-(trifluoromethyl)phenoxy)benzyl)imidazo[2,1-b]thiazole-5-carboxamide] | 0.16 (≈ 0.0713 µg/mL) | > 50 | 100 (≈ 44.5 µg/mL) | 9.68 (≈ 4.31 µg/mL) | 0.25 (≈ 0.111 µg/mL) | MIC [1]: 0.16 µM (≈ 0.0713 µg/mL); Macrophage toxicity concentration relative to MIC [9]: 4 and 8-fold higher than their MIC |
| O=C(/C=C/c1cccs1)N1CCN(Cc2ccc3c(c2)OCO3)CC1 [AX-35] | – | – | – | – | – | MIC [11]: 0.14 μM and 0.05 μg/mL |
| Cc1c(OCC(F)(F)F)ccnc1CSc1nc2ccccc2[nH]1 [LPZS] | – | – | – | – | – | IC90 [12]: 1.1 to 1.7 µM |
| Cc1cn2c(C(=O)Nc3ccc(Oc4cccc(C(F)(F)F)c4)cc3)c(C)nc2s1 [ND-11566, 2,6-Dimethyl-N-(4-(3-(trifluoromethyl)phenoxy)phenyl)imidazo[2,1-b]thiazole-5-carboxamide] | 9.1 (≈ 3.93 µg/mL) | > 50 | 50 (≈ 21.6 µg/mL) | > 100 | – | Fold difference in potency, anilide vs benzylic amide ND-11564 ([1]; MIC H37Rv-Mtb comparison): > 50 fold; MIC [1]: 9.10 µM (≈ 3.93 µg/mL) |
